# Patent US20260048062A1, “FUSED AMINO PYRIMIDINE COMPOUNDS FOR TREATMENT OF PSYCHOSIS AND PSYCHOTIC DISORDERS” (Ovid Therapeutics Inc., priority 2024, published 2026)
# Experiments:
# [1] = molecular target: T1, KCC2 (Homo sapiens, UniProt Q9H2X9); experiment: Biotinylation, plasma membrane level of KCC2 in HEK-293 cells; assay type: cell-based; conditions: 15 min
# T1 construct: expressed in transfected cells; host or cells: HEK-293 (ATCC CRL-1573), transient transfection
# T1 sequence (Q9H2X9 1-1116 isoform Q9H2X9-2): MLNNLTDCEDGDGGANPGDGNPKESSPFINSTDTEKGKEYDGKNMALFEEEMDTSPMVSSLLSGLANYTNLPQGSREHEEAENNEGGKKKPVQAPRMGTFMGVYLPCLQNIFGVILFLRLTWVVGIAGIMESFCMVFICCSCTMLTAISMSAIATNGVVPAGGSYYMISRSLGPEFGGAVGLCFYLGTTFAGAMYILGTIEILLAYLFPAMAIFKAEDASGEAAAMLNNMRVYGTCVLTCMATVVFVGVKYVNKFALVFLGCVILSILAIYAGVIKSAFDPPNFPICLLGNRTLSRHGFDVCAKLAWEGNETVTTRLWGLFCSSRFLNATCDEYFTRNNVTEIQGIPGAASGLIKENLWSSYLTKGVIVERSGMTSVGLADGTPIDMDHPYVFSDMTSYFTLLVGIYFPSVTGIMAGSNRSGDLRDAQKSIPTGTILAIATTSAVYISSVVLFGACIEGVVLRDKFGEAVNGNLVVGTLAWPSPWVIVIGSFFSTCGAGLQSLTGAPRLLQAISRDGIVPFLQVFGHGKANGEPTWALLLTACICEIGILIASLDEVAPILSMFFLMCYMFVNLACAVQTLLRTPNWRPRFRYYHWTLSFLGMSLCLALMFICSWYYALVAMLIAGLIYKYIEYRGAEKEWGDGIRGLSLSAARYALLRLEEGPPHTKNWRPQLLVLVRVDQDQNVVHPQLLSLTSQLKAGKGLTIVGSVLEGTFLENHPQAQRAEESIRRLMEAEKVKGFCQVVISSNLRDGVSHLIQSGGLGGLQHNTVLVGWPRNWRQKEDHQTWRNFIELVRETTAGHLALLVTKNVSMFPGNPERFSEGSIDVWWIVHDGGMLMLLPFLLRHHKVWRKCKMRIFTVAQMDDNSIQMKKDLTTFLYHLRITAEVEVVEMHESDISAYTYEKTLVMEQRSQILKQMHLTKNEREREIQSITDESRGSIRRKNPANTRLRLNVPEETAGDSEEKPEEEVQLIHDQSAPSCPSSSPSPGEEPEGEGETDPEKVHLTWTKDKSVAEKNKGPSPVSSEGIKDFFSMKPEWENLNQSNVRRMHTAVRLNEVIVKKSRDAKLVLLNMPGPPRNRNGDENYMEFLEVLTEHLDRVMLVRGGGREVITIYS
# Protocol: Cell Culture and biotinylation. HEK-293 cells were purchased from ATCC (CRL-1573) and transfected with human KCC2 and GFP expression plasmids using Lipofectamine 2000. Cells were utilized for experimentation 48-72 h following transfection. Cells were biotinylated at 4° C. using NHS-Biotin. Following lysis and purification on immobilized avidin beads, cell surface and total fractions were subject to immunoblotting as outlined previously (Conway et al., 2017, supra).
# The reliability of the biotinylation procedure was assessed via immunoblotting with antibodies against the cytosolic protein actin. Actin was present in the total lysates but was absent from the surface fractions (FIG. 2C).
# [2] = molecular target: T2, NKCC1 (Homo sapiens, UniProt P55011); experiment: Tl+ flux assay, HEK-293 cells expressing NKCC1; assay type: cell-based; conditions: read-out: concentration at which effects on NKCC1 were seen
# T2 construct: expressed in transfected cells; host or cells: HEK-293
# T2 sequence (P55011 1-1212): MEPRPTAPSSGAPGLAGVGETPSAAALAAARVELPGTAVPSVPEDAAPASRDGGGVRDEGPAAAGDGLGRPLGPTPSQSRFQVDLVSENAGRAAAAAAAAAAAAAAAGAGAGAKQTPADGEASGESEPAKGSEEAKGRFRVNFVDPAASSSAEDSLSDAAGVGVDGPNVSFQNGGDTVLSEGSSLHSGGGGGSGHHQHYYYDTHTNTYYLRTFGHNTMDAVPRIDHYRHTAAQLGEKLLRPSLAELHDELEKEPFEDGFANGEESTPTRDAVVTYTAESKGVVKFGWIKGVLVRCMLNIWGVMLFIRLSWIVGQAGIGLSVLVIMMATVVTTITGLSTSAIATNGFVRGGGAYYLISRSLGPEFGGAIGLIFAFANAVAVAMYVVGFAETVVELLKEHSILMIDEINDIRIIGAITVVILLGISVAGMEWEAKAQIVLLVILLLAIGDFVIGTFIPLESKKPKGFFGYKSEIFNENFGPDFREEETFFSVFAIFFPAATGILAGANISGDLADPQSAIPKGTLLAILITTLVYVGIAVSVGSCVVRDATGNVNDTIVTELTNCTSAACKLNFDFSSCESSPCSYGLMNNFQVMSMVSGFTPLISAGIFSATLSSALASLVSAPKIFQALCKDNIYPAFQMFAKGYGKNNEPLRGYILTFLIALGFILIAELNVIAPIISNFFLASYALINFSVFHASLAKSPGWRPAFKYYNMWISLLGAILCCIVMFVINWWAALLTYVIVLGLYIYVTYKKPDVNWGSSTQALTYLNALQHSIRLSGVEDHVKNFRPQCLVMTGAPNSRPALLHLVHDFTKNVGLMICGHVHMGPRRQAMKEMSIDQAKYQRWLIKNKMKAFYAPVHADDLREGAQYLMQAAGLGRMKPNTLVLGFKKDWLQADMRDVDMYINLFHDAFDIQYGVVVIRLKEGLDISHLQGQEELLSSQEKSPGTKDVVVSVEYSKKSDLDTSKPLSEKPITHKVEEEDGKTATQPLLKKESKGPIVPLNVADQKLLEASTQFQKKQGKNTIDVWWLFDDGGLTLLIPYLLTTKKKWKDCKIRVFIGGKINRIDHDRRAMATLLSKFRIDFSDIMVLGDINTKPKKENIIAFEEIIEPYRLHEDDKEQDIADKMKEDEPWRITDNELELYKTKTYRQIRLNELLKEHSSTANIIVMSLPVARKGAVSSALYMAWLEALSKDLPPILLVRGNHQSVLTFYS
# Protocol: FLIPR TI Flux assay. HEK-293 cells were washed with HBSS, and then incubated with loading buffer containing TI sensitive fluorescent dye (https://www.moleculardevices.com), 20 μM bumetanide 20 μM ouabain and 2.5 mM probenecid for 1 h at room temperature (RT) under control conditions or with drugs in the dark using a FlexStation 3 microplate reader (Molecular Devices) and imaged […] for 30 min. Stimulus buffer was added containing 5 mM K^+/0.5 mM Tl^+ and cells were imaged every 1.5 over a 190 second time course The initial rate Tl^+ uptake (Relative Fluorescence Units (RFU) per second) was determined following addition of the stimulus buffer as outlined previously (Conway et al., 2017, supra) (Lee et al., 2022, supra).
# Compared to KCC2, effects on KCC3, KCC4, and NKCC1 were only seen at concentrations more than 35-fold that of KCC2 (>100 μM) (FIG. 1G).
compound,measurement,setting,value
"C[C@@H]1CN(c2nc3c(c(Nc4ccc(C5CCCCC5)cc4)n2)COC3)CCO1 [Compound A, (R)—N-(4-cyclohexylphenyl)-2-(2-methylmorpholino)-5,7-dihydrofuro[3,4-d]pyrimidin-4-amine]",level of KCC2 on the plasma membrane (surface/total),[1]; 0.3 μM,94.5±8.4 % of control
same,level of KCC2 on the plasma membrane (surface/total),[1]; 3 μM,104.7±8.4 % of control
same,EC50,[2],> 100 µM
